Reference: US20120015988A1, “Sulfone Compounds Which Modulate The CB2 Receptor” (BOEHRINGER INGELHEIM INTERNATIONAL GMBH, priority 2008, published 2012)

target: T1, human CB2R (Homo sapiens, UniProt P34972); assay: CB2R mediated modulation of cAMP synthesis; type: cell-based; conditions: CHO cells expressing human CB2R; concentration at which 50% of the forskolin-stimulated cAMP synthesis was inhibited; 100% defined by 1 uM CP55940; read-out: CB2 EC50
T1 construct: host or cells: CHO cells
Method: B. CB2R Mediated Modulation of Camp Synthesis:
Compounds of the invention were evaluated for their CB2 agonist or inverse agonistic activity in accordance with the following experimental method.
CHO cells expressing human CB2R (Euroscreen) were plated at a density of 5000 cells per well in 384 well plates and incubated overnight at 37° C. After removing the media, the cells were treated with test compounds diluted in stimulation buffer containing 1 mM IBMX, 0.25% BSA and 10 uM Forskolin. The assay was incubated for 30 minutes at 37° C. Cells were lysed and the cAMP concentration was measured using DiscoverX-XS cAMP kit, following the manufacturer's protocol. In this setting, agonists will decrease forskolin induced production of cAMP while inverse agonists will further increase forskolin induced production of cAMP. EC50 of agonists were calculated as follows. The maximal amount of cAMP produced by forskolin compared to the level of cAMP inhibited by 1 uM CP55940 is defined as 100%. The EC50 value of each test compound was determined as the concentration at which 50% of the forskolin-stimulated cAMP synthesis was inhibited. Data was analyzed using a four-parameter logistic model. (Model 205 of XLfit 4.0).

T1 sequence (P34972 whole entry): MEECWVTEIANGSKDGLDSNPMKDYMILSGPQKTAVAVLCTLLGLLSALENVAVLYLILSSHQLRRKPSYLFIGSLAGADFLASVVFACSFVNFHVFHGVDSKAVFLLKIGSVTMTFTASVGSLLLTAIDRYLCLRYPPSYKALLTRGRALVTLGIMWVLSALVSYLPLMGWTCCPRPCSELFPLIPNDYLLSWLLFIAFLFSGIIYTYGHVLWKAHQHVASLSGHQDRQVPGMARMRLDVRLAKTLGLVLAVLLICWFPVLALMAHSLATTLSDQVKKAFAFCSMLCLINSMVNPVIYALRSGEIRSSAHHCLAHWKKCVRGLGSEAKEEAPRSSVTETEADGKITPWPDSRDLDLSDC

In order of rising EC50:
1. Cn1nc(C(C)(C)C)cc1-c1nnc(C(C)(C)S(=O)(=O)c2ccc(F)cc2)[nH]1 [Example 44, 3-(5-tert-butyl-2-methyl-2H-pyrazol-3-yl)-5-[1-(4-fluoro-benzenesulfonyl)-1-methyl-ethyl]-4H-[1,2,4]triazole]  0.002 µM
2. Cn1nc(C(C)(C)C)cc1-c1nnc(C(C)(C)S(=O)(=O)Cc2ccc(F)cc2)[nH]1 [Example 48, 3-(5-tert-butyl-2-methyl-2H-pyrazol-3-yl)-5-[1-(4-fluoro-phenylmethanesulfonyl)-1-methyl-ethyl]-4H-[1,2,4]triazole]  0.129 µM
3. CC(C)(C)c1cc(-c2nnc(C(C)(C)S(=O)(=O)c3ccc(F)cc3)[nH]2)on1 [Example 45, 3-(3-tert-butyl-isoxazol-5-yl)-5-[1-(4-fluoro-benzenesulfonyl)-1-methyl-ethyl]-4H-[1,2,4]triazole]  0.255 µM
4. CC(C)(C)c1cc(-c2nnc(C(C)(C)S(=O)(=O)Cc3ccc(F)cc3)[nH]2)on1 [Example 49, 3-(3-tert-Butyl-isoxazol-5-yl)-5-[1-(4-fluoro-phenylmethanesulfonyl)-1-methyl-ethyl]-4H-[1,2,4]triazole]  0.293 µM
5. Cn1nc(C(C)(C)C)cc1-c1nnc(C(C)(C)S(=O)(=O)CC2CCOCC2)[nH]1 [Example 46, 3-(5-tert-butyl-2-methyl-2H-pyrazol-3-yl)-5-[1-methyl-1-(tetrahydro-pyran-4-ylmethanesulfonyl)-ethyl]-4H-[1,2,4]triazole]  0.414 µM
6. Cn1nc(C(C)(C)C)cc1-c1nnc(C(C)(C)S(=O)(=O)CC2CCC(O)CC2)[nH]1 (stereo not drawn) [Example 51, 4-{2-[5-(5-tert-butyl-2-methyl-2H-pyrazol-3-yl)-4H-[1,2,4]triazol-3-yl]-propane-2-sulfonylmethyl}-cyclohexanol]  0.459 µM
